Test results from patent US20090281065A1, “Use of Lysophospholipids to Treat Inflammation” (priority 2008, published 2009).
Marks after values point to notes of the source that are not given here.

What was measured:
[1] = parameters: species or system Cobb 400 broiler chickens; details: in vivo
IL6 = assay: Plasma cytokine ELISA in TNBS colitis rats: IL6; details: Example 3; oral day 4-10: PB6 1.5 108 CFU/Kg thrice daily; Lysophospholipid 10.3 mg/Kg 2 times daily; combination 25.75 mg/ml 2 times daily; Mesacol 250 mg/Kg once daily
IL1-β = assay: Plasma cytokine ELISA in TNBS colitis rats: IL1-β
TNBS induced colitis [2] = system: TNBS induced colitis
TNBS induced colitis [3] = assay: TNBS induced colitis in rats: colon wet weight and macroscopic colon score; details: for Colon Score / Colon wet weight (g): day 11
TNF-α = assay: Plasma cytokine ELISA in TNBS colitis rats: TNF-α
IFN-γ = assay: Plasma cytokine ELISA in TNBS colitis rats: IFN-γ
TGF-β = assay: Plasma cytokine ELISA in TNBS colitis rats: TGF-β
IL10 = assay: Plasma cytokine ELISA in TNBS colitis rats: IL10
[4] = parameters: species or system Cobb 400 broiler chickens; details: in vivo; remark: listed apart in the source
HepG2/NFκB-Luc cells = assay: Cytotoxicity test (AlamarBlue reduction rate); format: cell-based; details: 2 mg/ml (~3636 μM) LPC content; 4 hours; FIG. 8
Protocol: An overnight culture of HepG2/NFκB-Luc cells were trypsinized and transferred to 96-well microtiter plate, with 1.5×10^4 cells/well. The 96-well microtiter plates were incubated for 24 hours at 37° C. with 5% CO2. Then different concentrations of LPC samples were added into plate wells together with AlamarBlue. The cells were incubated for 4 hours at 37° C. with 5% CO2 before the OD570 and OD600 readings were measured. Culture medium with no LPC added was used as a control. The cytotoxicity was reflected by the amount of AlamarBlue being reduced (reduction rate (RR)) as determined by the following formula:
RR %={[(εoxλ2)(Aλ1)−(εoxλ1)(Aλ2)]}/{[(εredλ1)(A′λ2)−(εredλ2)(A′λ1)]}×100%
where, εredλ1=155677 (absorption coefficient of reduced AlamarBlue at 570 nm) • Εredλ2=14652 (absorption coefficient of reduced AlamarBlue at 600 nm) • εoxλ1=80586 (absorption coefficient of oxidized AlamarBlue at 570 nm) • εoxλ2=117216 (absorption coefficient of oxidized AlamarBlue at 600 nm) • A′λ1=OD570 of the blank control (wells with AlamarBlue but no cells) • A′λ2=OD600 of the blank control (wells with AlamarBlue but no cells).

NFκB = assay: Inflammation test without TNF-α (NFκB luciferase reporter); format: cell-based; details: FIG. 9
Protocol: An overnight culture of HepG2/NFκB-Luc cells were trypsinized and transferred to 96-well microtiter plate, with 1.5×10^4 cells/well. […] After incubation, the supernatant was removed, and 100 μl of luciferase substrate was added into each well and incubated for 5 minutes. Then 80 μl of the solution was transferred to a clean microtiter plate to determine the florescence unit by Steady-Glo® Luciferase Assay System. The LPC-treated cells without substrate added were used as control.

[5] = Example 3, oral day 4-10: PB6 1.5 108 CFU/Kg thrice daily, Lysophospholipid 10.3 mg/Kg 2 times daily, combination 25.75 mg/ml 2 times daily, Mesacol 250 mg/Kg once daily
[6] = Example 4, Lysoprin + Marinol + lutein at 21.5 mg/kg orally thrice daily day 4-10, Mesacol 250 mg/Kg orally once daily

For `CC1=C[C@H](O)CC(C)(C)[C@H]1/C=C/C(C)=C/C=C/C(C)=C/C=C/C=C(C)/C=C/C=C(C)/C=C/C1=C(C)C[C@@H](O)CC1(C)C` [Treatment 2, lutein], the “performance (feed intake, weight gain, FCR)” value [1] was “comparable to that of the control group”.
In the case of `Nc1ccc(O)c(C(=O)O)c1` [Mesacol, 5-aminosalicylic acid], the “IL6 level in Plasma Day 11” value (IL6) is reported as 127.4^a picogram/ml, the “IL1-β level in Plasma Day 7” value (IL1-β; [5]) is reported as 881.52^b picogram/ml and the “IL1-β level in Plasma Day 11” value (IL1-β; [5]) is reported as 848.33^bc picogram/ml. The “IL1-β level in Plasma Day 7” value (IL1-β; [6]) was 567±^a picogram/ml, the “IL1-β level in Plasma Day 11” value (IL1-β; [6]) was 685±^bc picogram/ml and the “% Body weight gain/loss Day 1-4” value (TNBS induced colitis [2]; Example 3, TNBS day 1, Day 1-4 is prior to treatment (treatment from day 4)) was −6.6%. For the same compound, the “% Body weight gain/loss Day 4-10” value (TNBS induced colitis [2]; Example 3, oral day 4-10: PB6 1.5 10^8 CFU/Kg thrice daily, Lysophospholipids 10.3 mg/Kg 2 times daily, combination 25.75 mg/ml 2 times daily, Mesacol 250 mg/Kg once daily) was −1.87%, the “mortalities due to severe weight loss” value (TNBS induced colitis [2]; Example 4, Mesacol 250 mg/kg group, n=6) was “two” and the “macroscopic examination of the colonic tissue” value (TNBS induced colitis [3]; Example 3, PB6 (Group 4), Lysophospholipid 10.3 mg/kg (Group 5), combination 21.63 mg/kg (Group 6), Mesacol (Group 7)) was “no lesions with any visible inflammation or injury in the colonic tissue”. The “Colon Score” value (TNBS induced colitis [3]; Example 3, macroscopic grade 0-5, oral day 4-10: PB6 1.5 108 CFU/Kg thrice daily, Lysophospholipids 10.3 mg/Kg 2 times daily, combination 25.75 mg/ml 2 times daily, Mesacol 250 mg/Kg once daily) was 0.833^a, the “Colon wet weight (g)” value (TNBS induced colitis [3]; Example 3, oral day 4-10: PB6 1.5 108 CFU/Kg thrice daily, Lysophospholipids 10.3 mg/Kg 2 times daily, combination 25.75 mg/ml 2 times daily, Mesacol 250 mg/Kg once daily) was 0.669^a g and the “Colon wet weight (g)” value (TNBS induced colitis [3]; Example 4, Lysoprin + Marinol + lutein at 21.5 mg/kg orally thrice daily day 4-10, Mesacol 250 mg/Kg orally once daily day 4-10) was 0.336^ab g. For the same compound, the “Colon Score” value (TNBS induced colitis [3]; Example 4, grade 0-5, Lysoprin + Marinol + lutein at 21.5 mg/kg orally thrice daily day 4-10, Mesacol 250 mg/Kg orally once daily day 4-10) was 1.000^a, the “macroscopic examination of the colonic tissue” value (TNBS induced colitis [3]; Example 4, low dose combination at 21.63 mg/kg (Group 4), Mesacol (Group 6, n=4/6)) was “signs of amelioration with reduced localized ulceration” and the “TNF-α level in Plasma Day 7” value (TNF-α; [5]) was 22.77^a picogram/ml. For the same compound, the “TNF-α level in Plasma Day 11” value (TNF-α; [5]) was 30.27^b picogram/ml, the “TNF-α level in Plasma Day 7” value (TNF-α; [6]) was 29±^ab picogram/ml and the “TNF-α level in Plasma Day 11” value (TNF-α; [6]) was 28±^a picogram/ml. For the same compound, the “IFN-γ level in Plasma Day 7” value (IFN-γ; [5]) was 20.8^a picogram/ml, the “IFN-γ level in Plasma Day 11” value (IFN-γ; [5]) was 40.23^c picogram/ml and the “IFN-γ level in Plasma Day 7” value (IFN-γ; [6]) was 37^b picogram/ml. The “IFN-γ level in Plasma Day 11” value (IFN-γ; [6]) was 40^c picogram/ml, the “TGF-β level in Plasma Day 7” value (TGF-β; [5]) was 17535 ± 2261a picogram/ml and the “TGF-β level in Plasma Day 11” value (TGF-β; [5]) was 32542 ± 5294b picogram/ml. For the same compound, the “TGF level in Plasma Day 7” value (TGF-β; [6]) was 37^b picogram/ml, the “TGF level in Plasma Day 11” value (TGF-β; [6]) was 40^c picogram/ml and the “IL10 level in Plasma Day 7” value (IL10; [5]) was 217.9ab picogram/ml. The “IL10 level in Plasma Day 11” value (IL10; [5]) was 444c picogram/ml, the “IL10 level in Plasma Day 7” value (IL10; [6]) was 231^ab picogram/ml and the “IL10 level in Plasma Day 11” value (IL10; [6]) was 454^d picogram/ml.
With `CCC(=O)[O-].CCC(=O)[O-].CCC(=O)[O-].[Cr+3]` [Treatment 3, chromium propionate] the FCR [1] was “A similar trend”, the weight gain [1] was “A similar trend” and the “relative weight of the thymus” value [4] was “higher”.
With lysophosphatidylcholine [pure LPC] the “cytotoxicity (AlamarBlue reduction rate)” value (HepG2/NFκB-Luc cells) was “Certain inhibition”, the “inflammation activity (luciferase activity), without TNF-α, highest concentration” value (NFκB; 50 μM of LPC, compared to the mock treatment) was “no statistical difference” and the “inflammation activity (luciferase activity), without TNF-α” value (NFκB; 5, 15 and 50 μM LPC content, 6 hours) was “inflammatory effect at all the three concentrations tested”.
